Test system: RGP-specific TCL
Assay: TCL proliferation assay (3H-thymidine incorporation, stimulation index)
Type: cell-based, human
Conditions: for Proliferative response, stimulation index: peptides 10 μg/ml; for T cell responses to Lol p 5 peptides: 21 TCL tested
Experimental: Generation of Short-Term RGP-Specific TCL
PBMC were cultured in 24-well plates (Costar, Mass., USA) at 2.5×10^6 cells/well with RGP extract at a concentration of 25 or 50 μg/ml in RPMI 1640 medium (Gibco BRL, NY, USA) supplemented with 2 mM GlutaMAX I (Gibco BRL), 0.05 mg/ml gentamicin (David Bull Laboratories, Mulgrave, Victoria, Australia) and 5% heat-inactivated hunan AB^+ serum (Sigma, Mo., USA) for 7 days at 37° C. in a 5% CO2 humidified incubator. At day 7, cells were washed once and restimulated in 24-well plates at 5×10^5 cells/well width 25 or 50 μg/ml of RGP extract in the presence of 5×10^5 cells/well irradiated (3000 rads) autologous PBMC as a source of antigen presenting cells (APC). At day 2 following restimulation, 10 U/ml of Lymphocult T-LF (LC; Biotest, Germany) was added as a source of IL-2 and at day 4, 1 ml of culture medium was removed and replaced with fresh medium and 10 U/ml of LC. […] In all experiments T cells were rested for 6 to 7 days after the last addition of antigen and APC before testing.
T cells (5×10^4/well) were cultured in 96-well U bottom plates with either RGP extract at concentrations ranging from 25 to 200 μg/ml, purified Lol p 1 (0.12 to 2 μg/ml) or Lol p 5 (0.1 to 10 μg/ml), or Lol p 1 or Lol p 5 peptides (10 μg/ml), or medium alone (to determine background levels of proliferation), in the presence of washed autologous irradiated (3000 rads) PBMC (5×10^4/well). […] Cultures were incubated for 3 days, pulsed for the last 16 hours with ^3H-thymidine (1 μCi/well) and harvested onto glass fibre filters. ^3H-thymidine incorporation was measured by liquid scintillation spectroscopy and the mean counts per minute (cpm) for triplicate cultures was determined. Responses were considered positive if the stimulation index (SI, cpm of antigen-stimulated T cells divided by cpm of unstimulated T cells) was ≧2.5. Where several concentrations of allergen were tested (i.e., RGP, Lol p 1 and Lol p 5), values corresponding to the highest proliferation are shown.

[1] = Subject 2 TCL, Lol p 1 series (Table 3), RGP and Lol p 1 maximal response
[2] = Subject 12 TCL, Lol p 1 series (Table 3), RGP and Lol p 1 maximal response
[3] = Subject 7 TCL, Lol p 5 series (Table 4), RGP and Lol p 5 maximal response
[4] = Subject 3 TCL, Lol p 1 series (Table 3), RGP and Lol p 1 maximal response
[5] = Subject 11 TCL, Lol p 1 series (Table 3), RGP and Lol p 1 maximal response
[6] = Subject 20 TCL, Lol p 5 series (Table 4), RGP and Lol p 5 maximal response
[7] = Subject 4 TCL, Lol p 1 series (Table 3), RGP and Lol p 1 maximal response

Lol p 1 peptide 118-137: synthetic 20-mer, amino acids 118-137 of Lol p 1A (SEQ ID NO:1) (KGEEQKLRASAGELELQFRR; Lolium perenne)
Proliferative response, stimulation index [1]: 6.2 | Proliferative response, stimulation index [2]: 2.5

AFSESSKGLLATSAAKAPGL (Lolium perenne) [Lol p 5 peptide 64-83]
Proliferative response, stimulation index (Subject 4 TCL, Lol p 5 series (Table 4), RGP and Lol p 5 maximal response): 2.8 | Proliferative response, stimulation index [3]: 2.8

Lol p 1 peptide 82-101: synthetic 20-mer, amino acids 82-101 of Lol p 1A (SEQ ID NO:1) (SCSGEAVTVTITDDNEEPIA; Lolium perenne)
Proliferative response, stimulation index [4]: 3.6 | Proliferative response, stimulation index [5]: 3.6

Lol p 1 peptide 46-65: synthetic 20-mer, amino acids 46-65 of Lol p 1A (SEQ ID NO:1) (VDKAPFNGMTGCGNTPIFKD; Lolium perenne)
Proliferative response, stimulation index (Subject 5 TCL, Lol p 1 series (Table 3), RGP and Lol p 1 maximal response): 8.4 | Proliferative response, stimulation index [2]: 4.0

Lol p 5 peptide 163-182: synthetic 20-mer, amino acids 163-182 of Lol p 5A (SEQ ID NO:2) (AANAAPTNDKFTVFESAFNK; Lolium perenne)
Proliferative response, stimulation index [6]: 2.5

VAAAANAPPADKFKIFEAAF (Lolium perenne) [Lol p 5 peptide 46-65]
Proliferative response, stimulation index (Subject 12 TCL, Lol p 5 series (Table 4), RGP and Lol p 5 maximal response): 6.5 | Proliferative response, stimulation index (Subject 36 TCL, Lol p 5 series (Table 4), RGP and Lol p 5 maximal response): 2.7 | Proliferative response, stimulation index (Subject 37 TCL, Lol p 5 series (Table 4), RGP and Lol p 5 maximal response): 6.6

Lol p 1 peptide 91-110: synthetic 20-mer, amino acids 91-110 of Lol p 1A (SEQ ID NO:1)
Proliferative response, stimulation index [7]: 3.6 | Proliferative response, stimulation index [5]: 4.9

Lol p 5 peptide 73-92: synthetic 20-mer, amino acids 73-92 of Lol p 5A (SEQ ID NO:2) (LATSAAKAPGLIPKLDTAYD; Lolium perenne)
Proliferative response, stimulation index [3]: 2.6

Lol p 5 peptide 91-110: synthetic 20-mer, amino acids 91-110 of Lol p 5A (SEQ ID NO:2) (YDVAYKAAEGATPEAKYDAF; Lolium perenne)
T cell responses to Lol p 5 peptides: nor were T cell responses detected

Lol p 5 peptide 136-155: synthetic 20-mer, amino acids 136-155 of Lol p 5A (SEQ ID NO:2) (EVPAAKIPTGELQIVDKIDA; Lolium perenne)
T cell responses to Lol p 5 peptides: nor were T cell responses detected

Lol p 1 peptide 208-227: synthetic 20-mer, amino acids 208-227 of Lol p 1A (SEQ ID NO:1) (GPFTVRYTTEGGTKSEVEDV; Lolium perenne)
Lol p 1 peptides recognised by one or more TCL (34 TCL tested, all recognised with the exception of the four named): exception | Proliferative response, stimulation index [4]: 4.4

Lol p 5 peptide 109-128: synthetic 20-mer, amino acids 109-128 of Lol p 5A (SEQ ID NO:2) (AFVTALTEALRVIAGALEVH; Lolium perenne)
T cell responses to Lol p 5 peptides: nor were T cell responses detected

AGELELQFRRVKCKYPDDTK (Lolium perenne) [Lol p 1 peptide 127-146]
Proliferative response, stimulation index [1]: 5.8 | Proliferative response, stimulation index (Subject 13 TCL, Lol p 1 series (Table 3), RGP and Lol p 1 maximal response): 3.7 | Proliferative response, stimulation index (Subject 17 TCL, Lol p 1 series (Table 3), RGP and Lol p 1 maximal response): 3.0

Lol p 5 peptide 181-200: synthetic 20-mer, amino acids 181-200 of Lol p 5A (SEQ ID NO:2) (NKALNECTGGAYETYKFIPS; Lolium perenne)
Proliferative response, stimulation index [6]: 3.4

Lol p 1 peptide 217-236: synthetic 20-mer, amino acids 217-236 of Lol p 1A (SEQ ID NO:1) (EGGTKSEVEDVIPEGWKADT; Lolium perenne)
Proliferative response, stimulation index [4]: 3.3 | Proliferative response, stimulation index [5]: 4.4

FEIKCTKPESCSGEAVTVTI (Lolium perenne) [Lol p 1 peptide 73-92]
Proliferative response, stimulation index (Subject 1 TCL, Lol p 1 series (Table 3), RGP and Lol p 1 maximal response): 3.9 | Proliferative response, stimulation index [7]: 2.9 | Proliferative response, stimulation index [5]: 2.6

Lol p 1 peptide 221-240: synthetic 20-mer, amino acids 221-240 of Lol p 1A (SEQ ID NO:1) (KSEVEDVIPEGWKADTSYSA; Lolium perenne)
Proliferative response, stimulation index [5]: 3.3
